The values below come from ChEMBL document CHEMBL5726725, “Inhibitors of metallo-beta-lactamase (MBL) comprising a zinc chelating moiety” (2019).

The target of assay [1] is Metallo-beta-lactamase type 2 (Bacteria, UniProt C7C422). Briefly: (§1) MBL Inhibitory Activity in Constructed E. coli Cells Expressing MBLs: a. Transfer 50 μl LB with 0.8 mM IPTG (0.4 mM final concentration in assay) to each wellb. Add 1 μl inhibitor/positive control (500/1000 μM final concentration in assay) to selected wellsc. Add 50 μl overnight culture (=1) to each welld. Incubate in plate reader at 37° C. for 20 min with shakinge. Add 5 μl nitrocefin (3.2 mM) to selected wells with a multichannel pipettef. Incubate the plate in the plate reader for 3 hours, measuring nitrocefin hydrolysis at A482 every minute, with shaking in-betweeng. Measure endpoint at A600 to see how inhibitor alone effects bacterial growthh. Centrifuge the plate at 2800 rpm for 10 min, and transfer 50 μl to clean wellsi. Measure A482 endpoint.
Chain of Metallo-beta-lactamase type 2 (C7C422 whole entry): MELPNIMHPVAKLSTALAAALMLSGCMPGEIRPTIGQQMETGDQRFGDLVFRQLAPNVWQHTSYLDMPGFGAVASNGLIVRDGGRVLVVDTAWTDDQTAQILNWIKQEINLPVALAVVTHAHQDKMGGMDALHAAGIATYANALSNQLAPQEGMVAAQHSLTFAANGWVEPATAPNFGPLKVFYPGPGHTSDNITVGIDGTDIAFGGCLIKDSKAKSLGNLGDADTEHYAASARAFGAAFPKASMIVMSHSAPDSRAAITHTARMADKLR

Assay [2] can be described thus: as §1.

For orientation: IC50 means the concentration needed to halve the response being measured. Lower therefore signals greater potency in that assay. For the molecule `COc1ccc(Cn2cc(CN(Cc3ccccn3)Cc3ccccn3)nn2)cc1`, the results for the IC50 in assay [1] and in assay [2] were 380 nM and 2260 nM, respectively.
